Measured values reported in patent publication US10167272B2, “Muscarinic agonists” (Heptares Therapeutics Limited, priority 2015, dated 2019).
Like-named read-outs stand apart in the source and are kept apart here.

What was measured:
[1] = target: T1, human muscarinic M1 receptor (Homo sapiens, UniProt P11229); assay: Alphascreen Surefire phospho-ERK1/2 functional assay, M1; format: cell-based; details: for EC50: read-out: pEC50 M1 (converted); for Emax: CHO
T1 sequence (P11229 1-460): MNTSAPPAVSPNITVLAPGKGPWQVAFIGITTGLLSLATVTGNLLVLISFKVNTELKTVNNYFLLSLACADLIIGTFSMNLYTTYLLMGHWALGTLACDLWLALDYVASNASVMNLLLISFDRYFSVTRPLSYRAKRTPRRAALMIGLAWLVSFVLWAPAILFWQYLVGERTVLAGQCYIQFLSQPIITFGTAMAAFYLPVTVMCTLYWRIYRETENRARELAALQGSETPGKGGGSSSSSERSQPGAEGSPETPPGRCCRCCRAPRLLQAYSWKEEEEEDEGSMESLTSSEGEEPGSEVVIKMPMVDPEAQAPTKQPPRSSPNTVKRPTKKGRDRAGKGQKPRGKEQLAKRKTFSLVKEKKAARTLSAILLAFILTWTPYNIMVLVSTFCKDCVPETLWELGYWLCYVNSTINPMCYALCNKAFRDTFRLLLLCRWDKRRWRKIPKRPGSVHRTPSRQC
Procedure: ERK1/2 phosphorylation is a downstream consequence of both Gq/11 and Gi/o protein coupled receptor activation, making it highly suitable for the assessment of M1, M3 (Gq/11 coupled) and M2, M4 receptors (Gi/o coupled), rather than using different assay formats for different receptor subtypes. CHO cells stably expressing the human muscarinic M1, M2, M3 or M4 receptor were plated (25K/well) onto 96-well tissue culture plates in MEM-alpha+10% dialysed FBS. Once adhered, cells were serum-starved overnight. Agonist stimulation was performed by the addition of 5 μL agonist to the cells for 5 min (37° C.). Media was removed and 50 μL of lysis buffer added. After 15 min, a 4 μL sample was transferred to 384-well plate and 7 μL of detection mixture added.

[2] = target: T2, human muscarinic M4 receptor (Homo sapiens, UniProt P08173); assay: Alphascreen Surefire phospho-ERK1/2 functional assay, M4; format: cell-based; details: for EC50: read-out: pEC50 M4 (converted); for Emax: CHO
T2 construct: expressed in transfected cells
T2 sequence (P08173 1-479): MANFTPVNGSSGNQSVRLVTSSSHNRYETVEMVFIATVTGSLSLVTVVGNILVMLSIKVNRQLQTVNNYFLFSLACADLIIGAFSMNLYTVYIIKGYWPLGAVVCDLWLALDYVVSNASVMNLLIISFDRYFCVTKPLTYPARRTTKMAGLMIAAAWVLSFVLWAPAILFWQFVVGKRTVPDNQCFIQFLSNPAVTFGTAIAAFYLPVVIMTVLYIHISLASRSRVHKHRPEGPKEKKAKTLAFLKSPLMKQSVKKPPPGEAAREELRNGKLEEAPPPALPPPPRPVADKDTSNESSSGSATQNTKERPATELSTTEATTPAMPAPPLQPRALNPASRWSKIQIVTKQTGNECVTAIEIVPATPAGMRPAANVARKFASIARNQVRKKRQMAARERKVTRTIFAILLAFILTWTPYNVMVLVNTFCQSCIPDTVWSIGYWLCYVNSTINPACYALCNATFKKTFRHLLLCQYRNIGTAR

[3] = CHO cells stably expressing human M1, phospho-ERK1/2
[4] = CHO cells stably expressing human M4, phospho-ERK1/2
[5] = CHO cells stably expressing human M1, phospho-ERK1/2, relative to ACh
[6] = CHO cells stably expressing human M4, phospho-ERK1/2, relative to ACh
[7] = read-out: % Emax cf. ACh (M1), CHO cells stably expressing human M1, phospho-ERK1/2, relative to ACh
[8] = read-out: % Emax cf. ACh (M4), CHO cells stably expressing human M4, phospho-ERK1/2, relative to ACh

CCOC(=O)N1CCC2(CC(N3CCC(N(CCO)c4ccccc4)CC3)C2)C1 (single isomer, unassigned) [2-58 Isomer 2]
EC50 [1, 3]: 1260 nM | Emax ([1]; read-out: % Emax cf. ACh (M1)): 63% | EC50 [2, 4]: 251 nM | Emax ([2]; read-out: % Emax cf. ACh (M4)): 74%

CCOC(=O)N1CCC2(CC(N3CCC(N(CC4(C)CCC4)C(C)=O)CC3)C2)C1 (single isomer, unassigned) [2-21 Isomer 1]
EC50 [1, 3]: 15800 nM | % Emax cf. ACh (M1) [1, 5]: 51% | EC50 [2, 4]: 316 nM

CCOC(=O)N1CCC2(CC(N3CCC(N(CC(C)(C)F)C(C)=O)CC3)C2)C1 (single isomer, unassigned) [2-26 Isomer 1]
EC50 [1, 3]: > 20000 nM | % Emax cf. ACh (M1) [1, 5]: 23% | EC50 [2, 4]: 1000 nM | % Emax cf. ACh (M4) [2, 6]: 52%

CCOC(=O)N1CCC2(CC(N3CCC(N(CC4(OC)CCC4)C(C)=O)CC3)C2)C1 (single isomer, unassigned) [2-30 Isomer 1]
EC50 [1, 3]: 1260 nM | % Emax cf. ACh (M1) [1, 5]: 33% | EC50 [2, 4]: 126 nM | % Emax cf. ACh (M4) [2, 6]: 59%

CCOC(=O)N1CCC2(CC(N3CCC(N(Cc4ncco4)C(C)=O)CC3)C2)C1 (single isomer, unassigned) [2-37 Isomer 2]
EC50 [1, 3]: 1260 nM | Emax [1, 7]: 26% | EC50 [2, 4]: 631 nM | Emax [2, 8]: 55%

CCOC(=O)N1CC2(CC(N3CCC(N(CC)C(C)=O)CC3)C2)C1 [Example 1-2, Ethyl 6-{4-[acetyl(ethyl)amino]piperidin-1-yl}-2-azaspiro[3.3]heptane-2-carboxylate]
EC50 [1, 3]: 6310 nM | Emax [1, 7]: 59% | EC50 [2, 4]: 251 nM | Emax [2, 8]: 103%

CCOC(=O)N1CCC2(CC(N3CCC(N(CC4(O)CCC4)C(C)=O)CC3)C2)C1 (single isomer, unassigned) [2-31 Isomer 2]
EC50 [1, 3]: 398 nM | % Emax cf. ACh (M1) [1, 5]: 78% | EC50 [2, 4]: 39.8 nM | % Emax cf. ACh (M4) [2, 6]: 95%

CCOC(=O)N1CCC2(CC(N3CCC(N(C(C)=O)C4CC(F)(F)C4)CC3)C2)C1 (single isomer, unassigned) [2-28 Isomer 2]
EC50 [1, 3]: 158 nM | Emax [1, 7]: 124% | EC50 [2, 4]: 251 nM | Emax [2, 8]: 80%

CCOC(=O)N1CCC2(CC(N3CCC(N(CC4CC4)C(C)=O)CC3)C2)C1 (single isomer, unassigned) [2-20 Isomer 1]
EC50 [1, 3]: > 20000 nM | % Emax cf. ACh (M1) [1, 5]: 17% | EC50 [2, 4]: 1000 nM | % Emax cf. ACh (M4) [2, 6]: 36%

CCOC(=O)N1CCC2(CC(N3CCC(N(CC(C)(C)F)C(C)=O)CC3)C2)C1 (single isomer, unassigned) [2-26 Isomer 2]
EC50 [1, 3]: 398 nM | % Emax cf. ACh (M1) [1, 5]: 109% | EC50 [2, 4]: 63.1 nM | % Emax cf. ACh (M4) [2, 6]: 114%

CCOC(=O)N1CCC2(CC(N3CCC(N(CC(F)(F)F)C(=O)OCCOC)CC3)C2)C1 (single isomer, unassigned) [2-43 Isomer 2]
EC50 [1, 3]: 2510 nM | Emax [1, 7]: 35% | EC50 [2, 4]: 126 nM | Emax [2, 8]: 91%

CCOC(=O)N1CC2(CC(N3CCC(N(C(C)=O)C4CC4)CC3)C2)C1 [Example 1-1]
EC50 [1, 3]: 2510 nM | Emax [1, 7]: 72% | EC50 [2, 4]: 316 nM | Emax [2, 8]: 77%

CCOC(=O)N1CCC2(CC(N3CCC(CN(C(C)=O)C4CC4)CC3)C2)C1 (single isomer, unassigned) [2-12 Isomer 2]
pEC50 M1 [1, 3]: < 4.7 | % Emax cf. ACh (M1) [1, 5]: 6% | pEC50 M4 [2, 4]: 6.7 | % Emax cf. ACh (M4) [2, 6]: 41%

CCOC(=O)N1CCC2(CC(N3CCC(N(CC)C4COC4)CC3)C2)C1 (single isomer, unassigned) [2-53 Isomer 2]
EC50 [1, 3]: > 20000 nM | Emax [1, 7]: 42% | EC50 [2, 4]: 251 nM | Emax [2, 8]: 62%

CCN(C(C)=O)C1CCN(C2CC3(CCN(C(=O)OC)C3)C2)CC1 (single isomer, unassigned) [2-17 Isomer 1]
EC50 [1, 3]: > 20000 nM | % Emax cf. ACh (M1) [1, 5]: 27% | EC50 [2, 4]: 1260 nM | Emax [2, 8]: 87%

CCOC(=O)N1CCC2(CC(N3CCC(N(CC(C)C)C(C)=O)CC3)C2)C1 (single isomer, unassigned) [2-19 Isomer 1]
EC50 [1, 3]: 1260 nM | % Emax cf. ACh (M1) [1, 5]: 32% | EC50 [2, 4]: 251 nM | % Emax cf. ACh (M4) [2, 6]: 62%

CCOC(=O)N1CCC2(CC(N3CCC(N(CC)CCS(C)(=O)=O)CC3)C2)C1 (single isomer, unassigned) [2-56 Isomer 2]
EC50 [1, 3]: > 20000 nM | Emax [1, 7]: 7% | EC50 [2, 4]: 1260 nM | Emax [2, 8]: 41%

CCOC(=O)N1CCC2(CC(N3CCC(N(Cc4cnco4)C(C)=O)CC3)C2)C1 (single isomer, unassigned) [2-36 Isomer 2]
EC50 [1, 3]: 2510 nM | Emax [1, 7]: 45% | EC50 [2, 4]: 631 nM | Emax [2, 8]: 71%

CCOC(=O)N1CCC2(CC(N3CCC(N(CC4(C)COC4)C(C)=O)CC3)C2)C1 (single isomer, unassigned) [2-23 Isomer 2]
EC50 [1, 3]: 1260 nM | Emax [1, 7]: 43% | EC50 [2, 4]: 631 nM | Emax [2, 8]: 65%

CCOC(=O)N1CCC2(CC(N3CCC(C(C)n4cccn4)CC3)C2)C1 (single isomer, unassigned) [2-65 Isomer 1a]
EC50 [1, 3]: 7940 nM | Emax [1, 7]: 45% | EC50 [2, 4]: > 20000 nM | % Emax cf. ACh (M4) [2, 6]: 14%

CCOC(=O)N1CCC2(CC(N3CCC(N(CCO)C4CCC4)CC3)C2)C1 (single isomer, unassigned) [2-50 Isomer 2]
EC50 [1, 3]: > 20000 nM | Emax [1, 7]: 17% | EC50 [2, 4]: 251 nM | Emax [2, 8]: 70%

CCOC(=O)N1CCC2(CC(N3CCC(N(CCO)C4CC4)CC3)C2)C1 (single isomer, unassigned) [2-49 Isomer 2]
EC50 [1, 3]: > 20000 nM | Emax [1, 7]: 8% | EC50 [2, 4]: 1260 nM | Emax [2, 8]: 78%

CCOC(=O)N1CCC2(CC(N3CCC(N(C(C)=O)C4CC4)CC3)C2)C1 (single isomer, unassigned) [2-3 Isomer 1]
EC50 [1, 3]: 2000 nM | Emax [1, 7]: 78% | EC50 [2, 4]: > 20000 nM | % Emax cf. ACh (M4) [2, 6]: 13%

CCOC(=O)N1CCC2(CC(N3CCC(N(CC(C)(F)F)C(C)=O)CC3)C2)C1 (single isomer, unassigned) [2-27 Isomer 2]
EC50 [1, 3]: 631 nM | Emax [1, 7]: 108% | EC50 [2, 4]: 79.4 nM | Emax [2, 8]: 105%

COC(=O)N1CCC2(CC(N3CCC(N(C(C)=O)C4CCC4)CC3)C2)C1 (single isomer, unassigned) [2-15 Isomer 2]
EC50 [1, 3]: 501 nM | Emax [1, 7]: 117% | EC50 [2, 4]: 200 nM | Emax [2, 8]: 95%

CCOC(=O)N1CCC2(CC(N3CCC(N(C(C)=O)C4(C)CCC4)CC3)C2)C1 (single isomer, unassigned) [2-22 Isomer 2]
EC50 [1, 3]: 316 nM | Emax [1, 7]: 132% | EC50 [2, 4]: 79.4 nM | Emax [2, 8]: 139%

CCOC(=O)N1CCC2(CC(N3CCC(N(CC(C)(C)OC)C(C)=O)CC3)C2)C1 (single isomer, unassigned) [2-29 Isomer 1]
EC50 [1, 3]: > 20000 nM | % Emax cf. ACh (M1) [1, 5]: 17% | EC50 [2, 4]: 1260 nM | % Emax cf. ACh (M4) [2, 6]: 56%

CCN(C(C)=O)C1CCN(C2CC3(CCN(C(=O)OC)C3)C2)CC1 (single isomer, unassigned) [2-17 Isomer 2]
EC50 [1, 3]: 1260 nM | % Emax cf. ACh (M1) [1, 5]: 80% | EC50 [2, 4]: 200 nM | % Emax cf. ACh (M4) [2, 6]: 92%

CCCN(C(C)=O)C1CCN(C2CC3(CCN(C(=O)OCC)C3)C2)CC1 (single isomer, unassigned) [2-18 Isomer 2]
EC50 [1, 3]: 2000 nM | Emax [1, 7]: 89% | EC50 [2, 4]: 200 nM | Emax [2, 8]: 107%

CCOC(=O)N1CCC2(CC(N3CCC(N(CC4(O)CCC4)C(C)=O)CC3)C2)C1 (single isomer, unassigned) [2-31 Isomer 1]
EC50 [1, 3]: 3980 nM | % Emax cf. ACh (M1) [1, 5]: 27% | EC50 [2, 4]: 200 nM | % Emax cf. ACh (M4) [2, 6]: 62%
